In the METLIN SMRT retention time set (Domingo-Almenara et al. 2019):

Assay: gradient 5% acetonitrile 3 min, to 50% in 2 min, to 85% in 15 min, held 3 min, 100 µL/min
Conditions: column: Zorbax Extend-C18 2.1 x 50 mm; eluents: water / acetonitrile, 0.1% formic acid
How it was run: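 Retention times come from adduct peaks that were picked computationally and then checked by hand. The standards, pure and pooled in mixtures of ~100 molecules, were run on a Zorbax Extend-C18 column (2.1 × 50 mm, 1.8 μm) at 100 μL/min with water and acetonitrile, each with 0.1% formic acid. Detection was by quadrupole time-of-flight mass spectrometry in positive and negative ionization mode, with a dead volume of 40 μL and a dwell volume of 900 μL.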

Row | SMILES | RP-LC retention time
1 | CN1CCCN(c2ccc(NC(=O)c3ccc(Br)cc3)c(C(=O)O)c2)CC1 | 670 s
2 | COc1ccc(-c2nnc(COc3ccc(NC(=O)CNC(=O)Cc4ccccc4)cc3)o2)cc1 | 812 s
3 | Cc1noc2ncnc(N3CCN(c4ccccn4)CC3)c12 | 562 s
4 | Cc1ccccc1CNC(=O)C1CCCN(c2nc3ccsc3c(=O)n2Cc2ccc(F)cc2)C1 (centres undefined) | 1010 s
5 | CCC(=O)N(CCOC)CC(=O)N1CCc2sccc2C1COc1ccccc1F (centres undefined) | 831 s
6 | O=C(Cn1cccc1-c1nnc(C2CCC2)o1)Nc1cccc(Br)c1 | 974 s
7 | COc1ccc(CNC(=O)Cn2c(=O)cc(-c3nc(C)no3)c3ccccc32)cc1 | 810 s
8 | Cn1cc(CCNS(=O)(=O)c2ccccc2C(F)(F)F)c2cccnc21 | 764 s
9 | CCCNC(=O)c1cc2sccc2n1C | 816 s
10 | O=C(NCCN1CCN(C(=O)CSc2nc3ccccc3s2)CC1)c1cccs1 | 577 s
11 | O=C(c1ccoc1)N1CCCn2nc(-c3ccc(Cl)cc3)cc2C1 | 802 s
12 | COC(=O)c1ccsc1NC(=O)Cc1ccc2c(c1)OCO2 | 888 s
13 | O=C(Cn1nc2n(c1=O)CCCC2)Nc1cccc(Cl)c1 | 662 s
14 | CN(C)C(=O)C1CCN(c2nc3ccc(-c4ccsc4)nc3s2)CC1 | 839 s
15 | COc1ccc(-n2ccn3cc(-c4ccc5c(c4)OCO5)nc3c2=O)cc1 | 766 s
16 | N#CCN(c1ccc2c(c1)OCO2)S(=O)(=O)c1ccc2nncn2c1 | 692 s
17 | CCN(CC)CCCNC(=O)C1CCCN(c2ncc(-c3ccc(F)cc3)cn2)C1 (centres undefined) | 668 s
18 | CCn1c(C(=O)NCCCN2CCCC(C)C2)c(N2CCCC2=O)c2cc(OC)ccc21 (centres undefined) | 666 s
19 | COC(=O)c1ccc2c(=O)n(-c3cc(F)cc(F)c3)c(N3CCOCC3)nc2c1 | 945 s
20 | Cc1ccc(-c2noc(-c3nnn(Cc4nc(-c5cccc(Cl)c5)oc4C)c3C)n2)cc1 | 908 s
21 | CC(C)Cn1c(=O)c(-c2ccc(C(=O)NCc3cccnc3)cc2)nc2ccccc21 | 693 s
22 | Cc1ccn2c(Nc3ccc4c(c3)OCCO4)c(-c3ccccc3)nc2c1 | 690 s
23 | COCC(=O)Nc1ccc2nc(-c3ccc(F)cc3)cc(OCC(=O)OC)c2c1 | 682 s

Row | SMILES | RP-LC retention time
24 | Cc1ccc2c(c1)C(C)(C)C(=O)N2CC(=O)N1CCCCC1 | 860 s
25 | Brc1ccc(-c2ccc(CNCc3cccnc3)o2)c(Br)c1 | 686 s
26 | CCN(CC)CCCNc1ccc(-c2nc(-c3ccc(OC)cc3)no2)cn1 | 681 s
27 | CCn1cc(C2=CCN(C(=O)Nc3cc(Cl)ccc3C)CC2)c2cccnc21 | 999 s
28 | CN(C)CCNc1oc(-c2ccc(COc3ccc(Cl)cc3)o2)nc1C#N | 988 s
29 | Cn1c(CN2CCN(C(=O)c3cc4ccccc4o3)CC2)nc2ccccc21 | 580 s
30 | COc1ccc2c(c1)C1CC(C)(NC(=O)C1C(=O)c1ccccc1)O2 (centres undefined) | 758 s
31 | CN(C)CCNC(=O)c1cc2n(n1)CC(C)(C(=O)NCc1ccc(F)cc1)N(C)C2=O (centres undefined) | 576 s
32 | CN1C(=O)CC[C@]2(C(=O)NCc3cc(F)ccc3F)CCCC[C@@H]12 | 575 s
33 | CCN1CCN(C(=O)C2CCN(S(=O)(=O)c3ccc4c(c3)sc(=O)n4C)CC2)CC1 | 551 s
34 | O=C(Nc1nccs1)C1CCN(C(=O)Cn2ccc3ccccc32)CC1 | 719 s
35 | Cc1cccc(-c2nc(-c3ccc4c(c3)oc(=O)n4C)no2)c1 | 1130 s
36 | CCOc1ccccc1N1CCN(S(=O)(=O)c2nn(CC)cc2C(=O)NCCOC)CC1 | 910 s
37 | O=C(Nc1ccc2c(c1)CN(C(=O)COc1ccccc1)CCO2)C1CC1 | 752 s
38 | O=C(Nc1ccccc1)N1CC(Oc2cccc(-c3nc(-c4ccccc4)no3)c2)C1 | 1160 s
39 | COCc1noc([C@@H]2CN(C(=O)CC3CCCC3)C[C@H]2CO)n1 | 670 s
40 | CCc1ccc(C(=O)NCCc2nc3cccnc3n2CC)cc1 | 694 s
41 | Cn1cc(-c2nc(C(=O)Nc3cc(F)ccc3Cl)cs2)c2cccnc21 | 1260 s
42 | COc1ccccc1NC(=O)C1CCN(S(=O)(=O)c2ccc3[nH]c(=O)ccc3c2)CC1 | 734 s
43 | Cn1nc(C(=O)NCC2(C)CCOCC2)c2ccccc21 | 763 s
44 | CCOC(=O)c1[nH]c(C)c(CN(Cc2ccco2)C(=O)Cc2ccc(F)cc2)c1C | 1020 s
45 | Cc1cccc(Cl)c1NC(=O)Cn1ncc2c(N3CCN(c4ccccn4)CC3)ncnc21 | 593 s
46 | CCn1nc(C)c(CCNC(=O)c2ccc3nc(Cc4ccccc4)oc3c2)c1C | 720 s

Row | SMILES | RP-LC retention time
47 | CCc1ccc(OCc2nc(CCN(C)C(=O)Cc3cccs3)no2)cc1 | 1000 s
48 | CCOc1ccc(C(=O)N2CCc3nc[nH]c3C2)cc1 | 565 s
49 | Cc1ccc(Cn2c(=O)c3nn(C)cc3n3c(=O)n(Cc4ccc(N5CCCC5=O)cc4)nc23)cc1 | 812 s
50 | Cn1c(=O)n(C)c2cc(CNc3ccc(N4CCOCC4)cc3)ccc21 | 600 s
51 | Cc1ccc(-c2cc(N3CCN(C(=O)c4cc(C)cc(C)c4)CC3)ncn2)cc1 | 731 s
52 | Cc1nc(Nc2ccccc2)sc1C(=O)NCC1CC1 | 800 s
53 | CCCn1ncc(N2CCC(C(=O)N3CCN(C(C)=O)CC3)CC2)cc1=O | 591 s
54 | CC(C)COc1cc(=O)n2c(c1C(=O)NC1CCN(C)CC1)CCCCC2 | 571 s
55 | Cc1oc(C(=O)O)cc1COc1ccc2c(oc(=O)c3ccccc32)c1C | 927 s
56 | CC1=C(c2cccc(Cl)c2)S(=O)(=O)N=C1N1CCCN(C(=O)c2ccsc2)CC1 | 851 s
57 | CCCc1noc(-c2ccnc(-n3ncc(C(=O)N4CCN(CC)CC4)c3C)c2)n1 | 643 s
58 | Cn1cc(-c2cc3n(n2)CCC(=O)N3CCCC(=O)NCc2ccco2)c2ccccc21 | 775 s
59 | CCCCC(=O)N1CCCN(C2=NS(=O)(=O)C(c3ccc(C)c(C)c3)=C2C)CC1 | 886 s
60 | CC(C)N1C(=O)c2cccnc2Sc2cc(NC(=O)C3CCCC3)ccc21 | 860 s
61 | COc1ccccc1N1CCN(c2cc(C(=O)O)c3cc(NS(C)(=O)=O)ccc3n2)CC1 | 619 s
62 | CC1(O)CCOC2(CCN(Cc3cn[nH]c3-c3ccc(F)cc3)CC2)C1 (centres undefined) | 714 s
63 | Cc1ccc2c(Nc3ccc4c(c3)OCCO4)c(C(=O)N3CCCC(C)C3)cnc2n1 (centres undefined) | 645 s
64 | CCCc1cc(N2CCN(C(=O)Cc3ccsc3)CC2)nc2nnc(CC)n12 | 649 s
65 | NC(=O)c1c(NC(=O)C2COc3ccccc3O2)sc2c1CCN(Cc1ccccc1)C2 (centres undefined) | 587 s
66 | CC1CC(=O)c2cnc(N3CCN(c4ccc(F)cc4)CC3)nc2C1 (centres undefined) | 1080 s
67 | Cc1cc(C)cc(NC(=O)N2CCN(c3ccc(=O)n(-c4ccccc4)n3)CC2)c1 | 832 s
68 | O=C(CN1CCC(c2nc(-c3cccs3)no2)CC1)NCc1ccc2c(c1)OCO2 | 672 s
69 | COCCc1noc(C2CN(S(=O)(=O)c3ccc(C#N)cc3)C2)n1 | 768 s

Row | SMILES | RP-LC retention time
70 | Cc1oc(-c2[nH]ncc2C(=O)N2CCCC2)cc1S(=O)(=O)NCc1cccnc1 | 574 s
71 | Cc1ccc(CNS(=O)(=O)c2cc(-c3nc(C(C)(C)C)cs3)cs2)o1 | 1190 s
72 | COc1cc(O)cc(O)c1C(=O)/C=C/c1ccccc1 | 903 s
73 | CCc1ccc(N2CC(c3noc(-c4cc(OC)cc(OC)c4)n3)CC2=O)cc1 (centres undefined) | 1100 s
74 | Cc1ccc(S(=O)(=O)N2CCCC(CCC(=O)NCc3ccccc3)C2)cc1 (centres undefined) | 960 s
75 | CCc1onc(C)c1C1CCCN1C(=O)Nc1ccc(C)c(F)c1 (centres undefined) | 879 s
76 | O=C(NCCCN1CCCC1)c1ccc2c(c1)nnn2Cc1ccccc1 | 628 s
77 | CCC(CC)C(=O)N1CCCC(c2nc(CNC(=O)C3CCC3)cs2)C1 (centres undefined) | 777 s
78 | O=C(/C=C/c1ccc(CN(CCO)CCc2c[nH]c3ccccc23)cc1)NO | 622 s
79 | CCS(=O)(=O)c1nc2ccc(NS(=O)(=O)c3c(C)c(C)cc(C)c3C)cc2s1 | 1020 s
80 | O=P(O)(O)c1cc(-c2ccccc2)oc1-c1ccccc1 | 852 s
81 | COc1ccc(C)cc1NC(=O)Cn1nc2nc(N3CCCCC3C)ccn2c1=O (centres undefined) | 840 s
82 | CCOc1ccccc1CNC(=O)CCc1nnc2c3cc(-c4ccc(F)cc4)nn3ccn12 | 830 s
83 | COc1ccc(N2CCN(C(=O)NC3CCOCC3)CC2)cc1 | 599 s
84 | Cc1ccc(-c2nc3nc(C)c(CC(=O)NC(C)C)c(C)n3n2)cc1 | 761 s
85 | CC1CCN(C2=NCCN2C(=O)c2c(F)cccc2F)CC1 | 660 s
86 | COCCN1CCn2cc(S(=O)(=O)Nc3ccc(C)cc3F)cc2C1=O | 740 s
87 | COc1cccc(-c2ccc(=O)n(CCc3nc(-c4cccc(F)c4)no3)n2)c1 | 970 s
88 | CCOc1ccc(Cl)cc1S(=O)(=O)N1CCC(C(=O)NCCOC)CC1 | 753 s
89 | Cc1ccc(-c2nnc(Cc3nc(-c4cccnc4)no3)o2)cc1C | 845 s
